Columns and labels:
[1] = biological target: T1, TGF-beta receptor type-1 (Mus musculus, UniProt Q64729); experiment: Inhibition of ALK5 signaling in mouse NIH3T3 cells transfected with (CAGA)12-luciferase reporter incubated for 18 hrs in presence of TGF-beta1 by dual-luciferase reporter assay; type: cell-based
T1 sequence (Q64729 whole entry): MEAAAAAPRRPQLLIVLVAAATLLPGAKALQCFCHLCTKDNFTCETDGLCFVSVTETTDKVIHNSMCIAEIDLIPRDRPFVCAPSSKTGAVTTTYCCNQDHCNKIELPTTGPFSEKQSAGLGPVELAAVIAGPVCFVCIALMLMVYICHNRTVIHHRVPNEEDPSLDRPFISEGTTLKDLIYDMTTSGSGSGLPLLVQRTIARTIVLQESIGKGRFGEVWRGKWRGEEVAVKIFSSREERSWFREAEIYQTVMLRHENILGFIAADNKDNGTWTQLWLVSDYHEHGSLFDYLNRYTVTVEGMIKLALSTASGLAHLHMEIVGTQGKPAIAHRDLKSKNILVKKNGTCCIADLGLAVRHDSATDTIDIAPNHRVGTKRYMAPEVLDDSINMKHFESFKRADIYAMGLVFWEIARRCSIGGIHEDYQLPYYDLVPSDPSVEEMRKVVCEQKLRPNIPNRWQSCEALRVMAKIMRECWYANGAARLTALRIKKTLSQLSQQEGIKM

[2] = biological target: Voltage-gated inwardly rectifying potassium channel KCNH2 (Homo sapiens, UniProt Q12809); experiment: Inhibition of human ERG stably expressed in HEK293 cells by manual patch clamp method; type: toxicity, cell-based
Chain of Voltage-gated inwardly rectifying potassium channel KCNH2 (Q12809 whole entry): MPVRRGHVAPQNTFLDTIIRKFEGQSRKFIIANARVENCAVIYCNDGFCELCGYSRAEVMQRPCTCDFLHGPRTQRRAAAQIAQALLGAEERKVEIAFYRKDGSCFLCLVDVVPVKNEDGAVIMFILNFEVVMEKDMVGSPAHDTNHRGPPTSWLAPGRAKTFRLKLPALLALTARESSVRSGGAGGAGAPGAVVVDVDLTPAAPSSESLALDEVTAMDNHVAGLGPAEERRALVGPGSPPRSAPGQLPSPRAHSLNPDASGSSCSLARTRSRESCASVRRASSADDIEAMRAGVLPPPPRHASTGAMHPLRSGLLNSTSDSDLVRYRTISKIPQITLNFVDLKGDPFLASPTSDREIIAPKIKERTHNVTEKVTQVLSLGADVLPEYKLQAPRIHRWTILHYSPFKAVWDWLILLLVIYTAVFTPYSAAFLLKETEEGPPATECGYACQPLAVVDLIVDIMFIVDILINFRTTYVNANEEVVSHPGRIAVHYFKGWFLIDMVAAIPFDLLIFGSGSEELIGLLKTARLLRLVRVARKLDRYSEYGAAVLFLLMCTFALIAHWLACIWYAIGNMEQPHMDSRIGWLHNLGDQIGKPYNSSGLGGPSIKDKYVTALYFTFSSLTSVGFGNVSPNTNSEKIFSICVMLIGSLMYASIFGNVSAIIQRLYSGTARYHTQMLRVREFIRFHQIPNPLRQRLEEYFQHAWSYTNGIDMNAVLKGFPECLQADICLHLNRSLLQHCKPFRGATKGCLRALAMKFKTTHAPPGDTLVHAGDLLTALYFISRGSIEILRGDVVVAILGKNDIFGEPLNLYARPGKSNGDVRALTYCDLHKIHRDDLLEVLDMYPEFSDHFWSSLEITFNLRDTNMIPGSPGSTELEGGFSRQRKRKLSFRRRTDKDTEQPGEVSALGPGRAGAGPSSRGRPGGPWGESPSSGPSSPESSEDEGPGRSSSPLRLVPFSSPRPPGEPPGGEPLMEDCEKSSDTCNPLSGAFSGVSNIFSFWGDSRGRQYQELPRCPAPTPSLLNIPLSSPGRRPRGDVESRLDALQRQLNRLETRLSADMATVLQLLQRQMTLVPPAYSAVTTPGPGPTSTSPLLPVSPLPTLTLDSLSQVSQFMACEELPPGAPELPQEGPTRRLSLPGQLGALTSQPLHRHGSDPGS

[3] = biological target: T2, TGF-beta receptor type-1 (Homo sapiens, UniProt P36897); experiment: Inhibition of TGFbetaR1 (unknown origin)
T2 sequence (P36897 whole entry): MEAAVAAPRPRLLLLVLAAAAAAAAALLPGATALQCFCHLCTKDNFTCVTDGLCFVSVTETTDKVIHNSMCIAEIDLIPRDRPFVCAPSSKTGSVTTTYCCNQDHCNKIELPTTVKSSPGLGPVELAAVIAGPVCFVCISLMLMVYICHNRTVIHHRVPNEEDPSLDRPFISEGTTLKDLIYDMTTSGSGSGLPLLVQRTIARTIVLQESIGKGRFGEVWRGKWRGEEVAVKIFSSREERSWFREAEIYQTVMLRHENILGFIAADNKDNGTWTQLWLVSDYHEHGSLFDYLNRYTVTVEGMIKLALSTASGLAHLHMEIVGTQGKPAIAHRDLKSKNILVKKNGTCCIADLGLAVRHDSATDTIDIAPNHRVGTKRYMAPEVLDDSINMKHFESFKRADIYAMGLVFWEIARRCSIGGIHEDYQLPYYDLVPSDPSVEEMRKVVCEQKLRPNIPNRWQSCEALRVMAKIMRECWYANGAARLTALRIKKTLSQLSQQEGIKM

[4] = biological target: T2, TGF-beta receptor type-1; experiment: Inhibition of ALK5 (unknown origin) incubated for 2 hrs in presence of ATP by ADP-Glo reagent based luminescence plate reader analysis
[5] = tested on: Panc02; experiment: cells; settings: Mus musculus, Panc02, 72 h
[6] = tested on: PANC-1; experiment: cells; settings: Homo sapiens, PANC-1, 72 h
[7] = tested on: 4T1; experiment: cells; settings: Mus musculus, 4T1, 72 h
[8] = tested on: MDA-MB-231; experiment: cells; settings: Homo sapiens, MDA-MB-231, 72 h
[9] = tested on: HepG2; experiment: cells; settings: Homo sapiens, HepG2, 72 h
[10] = tested on: U-251; experiment: cells; settings: Homo sapiens, U-251, 72 h
[11] = tested on: Kasumi 1; experiment: cells; settings: Homo sapiens, Kasumi 1, 72 h
[12] = tested on: MV4-11; experiment: cells; settings: Homo sapiens, MV4-11, 72 h
[13] = in vitro; settings: human, MCF-10A cells
[14] = in vitro; settings: human, BEAS-2B cells
[15] = in vitro; settings: human, HEK293T cells
[16] = in vitro; settings: human, L02 cells
[17] = tested on: Panc02; experiment: Antitumor activity against mouse Panc02 cells implanted in C57BL/6J mouse model assessed as tumor growth inhibition at 10 mg/kg, ip administered every other day for 24 days relative to control; type: functional; settings: Panc02, 576 h, time 24 day, read-out: TGI
[18] = tested on: PANC-1; experiment: Antitumor activity against human PANC-1 xenografted in […] mouse model assessed as tumor growth inhibition at 10 mg/kg, ip administered every other day for 24 days relative to control; type: functional; settings: PANC-1, 576 h, time 24 day, read-out: TGI

Structure (SMILES) | EC50 [1] [nM] | further results
Nc1ncnc2c1c(-c1ccc3[nH]ccc3c1)nn2CCC1CCN(S(=O)(=O)c2cccs2)CC1 | 607 | 
CC(=O)N1CCC(CCn2nc(-c3ccc4c(c3)OCO4)c3c(N)ncnc32)CC1 | > 1000 | 
Nc1ncnc2c1c(-c1ccc3[nH]ccc3c1)nn2CCC1CCNCC1 | > 1000 | 
N#Cc1ccc(S(=O)(=O)N2CCC(CCn3nc(-c4ccc5[nH]ccc5c4)c4c(N)ncnc43)CC2)cc1 | > 1000 | 
CC(C)(C)OC(=O)N1CCCC(Cn2nc(-c3ccc4[nH]ccc4c3)c3c(N)ncnc32)C1 (centres undefined) | 689 | 
Nc1ncnc2c1c(-c1ccc3[nH]ccc3c1)nn2CCC1CCN(S(=O)(=O)c2cccnc2)CC1 | > 1000 | 
CC(=O)N1CCC(CCn2nc(-c3ccc4nccnc4c3)c3c(N)ncnc32)CC1 | > 1000 | 
CC(C)(C)OC(=O)N1CCC(CCn2nc(-c3ccc4[nH]ccc4c3)c3c(N)ncnc32)CC1 | 441 | 
COc1ccc(S(=O)(=O)N2CCC(CCn3nc(-c4ccc5[nH]ccc5c4)c4c(N)ncnc43)CC2)c(OC)c1 | > 1000 | 
CC(C)(C)OC(=O)N1CCN(CCn2nc(-c3ccc4[nH]ccc4c3)c3c(N)ncnc32)CC1 | 488 | 
Nc1ncnc2c1c(-c1ccc3[nH]ccc3c1)nn2CCC1CCN(S(=O)(=O)c2cc(Cl)ccc2Cl)CC1 | > 1000 | 
CC(C)(C)c1ccc(S(=O)(=O)N2CCC(CCn3nc(-c4ccc5[nH]ccc5c4)c4c(N)ncnc43)CC2)cc1 | > 1000 | 
CC(=O)N1CCC(CCn2nc(-c3ccc4ncccc4c3)c3c(N)ncnc32)CC1 | > 1000 | 
CC(=O)Nc1cccc(-c2nn(CCC3CCN(C(C)=O)CC3)c3ncnc(N)c23)c1 | > 1000 | 
Nc1ncnc2c1c(-c1ccc3[nH]ccc3c1)nn2-c1ccc2cc[nH]c2c1 | 525 | 
Nc1ncnc2c1c(-c1ccc3[nH]ccc3c1)nn2CCC1CCN(S(=O)(=O)c2ccc(Cl)cc2Cl)CC1 | > 1000 | 

Structure (SMILES) | EC50 [1] [nM] | further results
Cc1cccc(-c2nc(C34CCC(C(N)=O)(CC3)CC4)[nH]c2-c2ccc3c(c2)OCO3)n1 |  | IC50 [3]: 47 nM
Nc1ncnc2c1c(-c1ccc3[nH]ccc3c1)nn2CCC1CCN(S(=O)(=O)c2ccc3ccccc3c2)CC1 | 971 | 
C#CCCCC(=O)N1CCC(CCn2nc(-c3ccc4[nH]ccc4c3)c3c(N)ncnc32)CC1 | 465 | 
Nc1ncnc2c1c(-c1ccc3[nH]ccc3c1)nn2CCC1CCN(S(=O)(=O)c2cccc(Cl)c2Cl)CC1 | 848 | 
CC(C)(C)OC(=O)N1CCC(CCCn2nc(-c3ccc4[nH]ccc4c3)c3c(N)ncnc32)CC1 | 998 | 
CC(=O)c1nn(CCC2CCN(C(C)=O)CC2)c2ncnc(N)c12 | 485 | 
Nc1ncnc2c1c(-c1ccc3[nH]ccc3c1)nn2CCC1CCN(S(=O)(=O)c2cc(F)cc(F)c2)CC1 | > 1000 | 
COc1ccccc1C(=O)N1CCC(CCn2nc(-c3ccc4[nH]ccc4c3)c3c(N)ncnc32)CC1 | 665 | 
Nc1ncnc2c1c(-c1ccc3[nH]ccc3c1)nn2CCC1CCN(S(=O)(=O)c2cccc(Cl)c2)CC1 | 1320 | 
Nc1ncnc2c1c(-c1ccc3[nH]ccc3c1)nn2CCC1CCN(C(=O)OCc2ccccc2)CC1 | > 1000 | 
CC(=O)N1CCC(CCn2nc(-c3ccc4cc[nH]c4c3)c3c(N)ncnc32)CC1 | > 1000 | 
CC(C)(C)OC(=O)N1CC(Cn2nc(-c3ccc4[nH]ccc4c3)c3c(N)ncnc32)C1 | 750 | 
CC(=O)N1CCC(CCn2nc(-c3coc4ccccc34)c3c(N)ncnc32)CC1 | 682 | 
Nc1ncnc2c1c(-c1ccc3[nH]ccc3c1)nn2CCC1CCN(S(=O)(=O)c2ccccc2Cl)CC1 | 856 | 
Cc1cccc(-c2nn3c(c2-c2ccnc4ccc(C(N)=O)cc24)CCC3)n1 [GALUNISERTIB] |  | CC50 [5]: > 20 µM; CC50 [6]: > 20 µM; CC50 [7]: > 20 µM; CC50 [8]: > 20 µM; CC50 [9]: 5.46 µM; CC50 [10]: 17 µM; CC50 [11]: 3.12 µM; CC50 [12]: > 20 µM; CC50 at 72 h [13]: 19.9 µM; CC50 at 72 h [14]: 13 µM; CC50 at 72 h [15]: > 20 µM; CC50 at 72 h [16]: 17.4 µM
Nc1ccn([C@@H]2O[C@H](CO)[C@@H](O)C2(F)F)c(=O)n1 [GEMCITABINE] |  | inhibition in vivo at 10 mg/kg [17]: 92.1%; inhibition in vivo at 10 mg/kg [18]: 82.2%

Continued, in another order:

EC50 [1] [nM] | Structure (SMILES) | further results
131 | CC(C)S(=O)(=O)N1CCC(CCn2nc(-c3ccc4[nH]ccc4c3)c3c(N)ncnc32)CC1 | 
90.8 | CCS(=O)(=O)N1CCC(CCn2nc(-c3ccc4[nH]ccc4c3)c3c(N)ncnc32)CC1 | 
176 | CCCCS(=O)(=O)N1CCC(CCn2nc(-c3ccc4[nH]ccc4c3)c3c(N)ncnc32)CC1 | 
374 | CC(C)(C)OC(=O)N1CCC(Cn2nc(-c3ccc4[nH]ccc4c3)c3c(N)ncnc32)CC1 | 
295 | CC(=O)N1CCC(CCn2nc(-c3ccc4[nH]ncc4c3)c3c(N)ncnc32)CC1 | 
15.3 | CC(=O)N1CCC(CCn2nc(-c3ccc4[nH]cc(C)c4c3)c3c(N)ncnc32)CC1 | IC50 [2]: 9.87 µM
283 | CC(=O)N1CCC(CCn2nc(-c3ccc4c(ccn4C)c3)c3c(N)ncnc32)CC1 | 
105 | CC(=O)N1CCC(CCn2nc(-c3ccc4[nH]c(C)cc4c3)c3c(N)ncnc32)CC1 | 
29.6 | CC(=O)N1CCC(CCn2nc(-c3ccc4[nH]ccc4c3)c3c(N)ncnc32)CC1 | IC50 [2]: 11.7 µM
138 | CC(C)(C)C(=O)N1CCC(CCn2nc(-c3ccc4[nH]ccc4c3)c3c(N)ncnc32)CC1 | 
339 | Nc1ncnc2c1c(-c1ccc3[nH]ccc3c1)nn2CCC1CCN(S(=O)(=O)c2ccccc2F)CC1 | 
363 | CC(C)(C)OC(=O)N1CCC(Cn2nc(-c3ccc4[nH]ccc4c3)c3c(N)ncnc32)C1 (centres undefined) | IC50 [4]: 155 nM
348 | Cc1ccc(S(=O)(=O)N2CCC(CCn3nc(-c4ccc5[nH]ccc5c4)c4c(N)ncnc43)CC2)cc1 | 
105 | Nc1ncnc2c1c(-c1ccc3[nH]ccc3c1)nn2CCC1CCN(S(=O)(=O)C2CC2)CC1 | 
45.9 | CCCS(=O)(=O)N1CCC(CCn2nc(-c3ccc4[nH]ccc4c3)c3c(N)ncnc32)CC1 | 
130 | CC(=O)N1CCC(CCn2nc(-c3ccc4ncsc4c3)c3c(N)ncnc32)CC1 | 
302 | CC(=O)N1CCC(CCn2nc(-c3ccc(N)cc3C)c3c(N)ncnc32)CC1 | 
132 | COc1ccc(S(=O)(=O)N2CCC(CCn3nc(-c4ccc5[nH]ccc5c4)c4c(N)ncnc43)CC2)cc1 | 
303 | Nc1ncnc2c1c(-c1ccc3[nH]ccc3c1)nn2CCC1CCN(S(=O)(=O)c2ccc(C(F)(F)F)cc2)CC1 | 
273 | Nc1ncnc2c1c(-c1ccc3[nH]ccc3c1)nn2CCC1CCN(C(=O)c2ccccc2)CC1 | 
403 | CC(=O)N1CCC(CCn2nc(-c3cc4cc[nH]c4cc3C)c3c(N)ncnc32)CC1 | 
430 | COc1cc(F)cc(-c2nn(CCC3CCN(C(C)=O)CC3)c3ncnc(N)c23)c1 | 

Source: ChEMBL document CHEMBL5512657, “Design, synthesis and evaluation of a pyrazolo[3,4-d]pyrimidine derivative as a novel and potent TGFβ1R1 inhibitor” (Eur J Med Chem, 2024)
